Common to all, as to type: functional, cell-based
For experiment [1], the target named is T1, Transient receptor potential cation channel subfamily A member 1 (Homo sapiens, UniProt O75762). Kind of experiment: Agonist activity at human TRPA1 expressed in HEK293 cells assessed as [45]Ca2+ influx by microbeta plate count.
For experiment [2], the target named is T1, Transient receptor potential cation channel subfamily A member 1. Put plainly: Agonist activity at human TRPA1 expressed in HEK293 cells assessed as [45]Ca2+ influx by microbeta plate count relative to cinnamaldehyde.
The target is the same in experiment [3]. Kind of experiment: Antagonist activity at human TRPA1 expressed in HEK293 cells assessed as [45]Ca2+ influx by microbeta plate count.
The target is the same in experiment [4]. Put plainly: Antagonist activity at human TRPA1 expressed in HEK293 cells assessed as inhibition of cinnamaldehyde-induced [45]Ca2+ influx by microbeta plate count.

Bounds are passed on as bounds.

T1 sequence (O75762 whole entry): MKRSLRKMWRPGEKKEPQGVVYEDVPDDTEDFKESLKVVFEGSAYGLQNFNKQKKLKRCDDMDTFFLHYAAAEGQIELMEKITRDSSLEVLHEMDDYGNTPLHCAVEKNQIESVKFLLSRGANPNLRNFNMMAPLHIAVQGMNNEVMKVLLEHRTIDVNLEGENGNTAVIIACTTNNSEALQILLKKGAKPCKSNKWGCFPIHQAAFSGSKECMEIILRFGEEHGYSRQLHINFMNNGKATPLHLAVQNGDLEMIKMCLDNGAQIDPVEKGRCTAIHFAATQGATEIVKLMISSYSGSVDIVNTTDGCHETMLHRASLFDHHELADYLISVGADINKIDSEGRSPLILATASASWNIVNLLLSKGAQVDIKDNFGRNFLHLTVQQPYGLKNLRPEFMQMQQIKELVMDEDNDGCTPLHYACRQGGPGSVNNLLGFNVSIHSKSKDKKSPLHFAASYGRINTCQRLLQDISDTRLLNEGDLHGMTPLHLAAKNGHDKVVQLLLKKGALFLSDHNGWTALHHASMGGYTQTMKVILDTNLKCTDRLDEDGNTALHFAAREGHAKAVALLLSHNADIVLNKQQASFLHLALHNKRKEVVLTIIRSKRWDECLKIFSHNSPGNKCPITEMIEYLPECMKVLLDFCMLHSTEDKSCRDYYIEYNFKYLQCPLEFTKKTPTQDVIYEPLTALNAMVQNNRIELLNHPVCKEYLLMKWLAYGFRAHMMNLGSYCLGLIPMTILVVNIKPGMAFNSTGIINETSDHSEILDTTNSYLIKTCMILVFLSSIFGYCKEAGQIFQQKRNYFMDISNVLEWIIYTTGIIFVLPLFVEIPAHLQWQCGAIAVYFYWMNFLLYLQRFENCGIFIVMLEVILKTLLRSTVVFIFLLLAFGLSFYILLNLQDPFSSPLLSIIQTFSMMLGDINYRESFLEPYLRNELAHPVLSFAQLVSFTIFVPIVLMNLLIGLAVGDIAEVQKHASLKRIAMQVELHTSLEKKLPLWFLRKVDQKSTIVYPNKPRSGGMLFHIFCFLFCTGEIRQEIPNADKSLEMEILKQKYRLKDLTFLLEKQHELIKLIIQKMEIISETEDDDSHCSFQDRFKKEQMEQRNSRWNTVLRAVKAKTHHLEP

Broadly, the EC50 is the concentration that produces a half-maximal response. With `CN(C)c1ccc(/C=C/C=N/O)cc1`, the EC50 in experiment [1] was 15.9 µM. Further, the Efficacy in experiment [2] is 0.87.

With `O=C/C=C/c1ccccc1` [CINNAMALDEHYDE], the 50% effective concentration (EC50) in experiment [1] came out at 51.4 µM.

For the molecule `COc1ccc(/C=C(C)/C(C)=N/O)cc1`, the half-maximal effective concentration (EC50) in experiment [1] is 46.1 µM. Also, the Efficacy in experiment [2] was 0.23.

`CC(/C=N/O)=C\c1ccc(C(C)(C)C)cc1`: the Efficacy in experiment [2] came to 0.15.

`O/N=C/C=C/c1ccc(Cl)cc1`: the Efficacy in experiment [2] stood at 0.46.

With `CC(/C=C/c1cccc(Cl)c1)=N\O`, in experiment [1], the half-maximal effective concentration (EC50) stood at 63.1 µM. For the same molecule, in experiment [2], the Efficacy amounted to 0.85.

On to `CC(=C\c1cccc([N+](=O)[O-])c1)/C(C)=N/O`, for which the Efficacy in experiment [2] stood at 0.

By IC50 is commonly meant the concentration needed to halve the response being measured. As a reminder, the KB is the equilibrium dissociation constant of an antagonist, usually derived from a functional assay. In the case of `CC(=C\c1ccccc1)/C(C)=N/O`, in experiment [3], the half-inhibitory concentration (IC50) stood at 2.7 µM. Moreover, the KB in experiment [4] worked out at 1.91 µM. In experiment [2], the Efficacy was 0.

In the case of `CC(/C=C/c1ccc2c(c1)OCO2)=N\O`, the half-maximal effective concentration (EC50) in experiment [1] was found to be 11.5 µM. The Efficacy in experiment [2] came to 0.54.

`CC(/C=C/c1ccc(Cl)cc1)=N\O`: the EC50 in experiment [1] is 27.6 µM. Further, the Efficacy in experiment [2] amounted to 0.66.

As for `O/N=C\C=C\c1ccc(Cl)cc1`, in experiment [1], the 50% effective concentration (EC50) worked out at 9.4 µM. Besides, the Efficacy in experiment [2] stood at 0.85.

On to `CC(=C\c1ccccc1Cl)/C(C)=N/O`, for which the Efficacy in experiment [2] was found to be 0.

As for `NC(/C=C/c1cc(C(F)(F)F)cc(C(F)(F)F)c1)=N\O`, in experiment [2], the Efficacy was less than 0.1.

Regarding `O/N=C/C=C/c1ccccc1`, in experiment [2], the Efficacy stood at 0.

Take `CC(/C=N/O)=C\c1ccccc1`: in experiment [1], the EC50 was 69.4 µM. For the same molecule, the Efficacy in experiment [2] was determined as 0.18.

Consider `CC(/C=C/c1cccc(Cl)c1)=N/O`, for which, in experiment [2], the Efficacy was determined as 0.21.

Consider `CC(/C=C/c1ccccc1)=N\O`, for which the half-maximal effective concentration (EC50) in experiment [1] was 96.6 µM. Also, in experiment [2], the Efficacy was 0.27.

With `CC(=C\c1ccc(Cl)cc1)/C(C)=N/O` [AP18 5], the IC50 in experiment [3] was 2.8 µM. The KB in experiment [4] was determined as 1.26 µM. For the same molecule, in experiment [2], the Efficacy was determined as 0.

Turning to `O/N=C/C=C/c1ccc(C(F)(F)F)cc1`, in experiment [2], the Efficacy was 0.13.

With `CC(=C\c1cccc(C)c1)/C(C)=N/O`, the EC50 in experiment [1] was 14.4 µM. In experiment [2], the Efficacy came to 0.84.
